Values belong to the compound of their own block, whether it stands above or below them.
What was measured:
[1] = tested on: PAF-induced platelet aggregation (platelet-rich plasma); assay: PAF antagonism, in vitro platelet aggregation assay; type: cell-based; settings: human PRP; for IC50: dose giving 50 % PAF antagonism, PAF 1-5×10^-8 M; for inhibition at 5 µM: dose 5 micromoles; for inhibition at 10 µM: dose 10 micromoles
Procedure: Blood was centrifuged at 110×g for 15 min. and the supernatant PRP carefully transferred into a polypropylene tube. Platelet-poor-plasma (PPP) was prepared by centrifuging PRP at 12,000×g for 2 min. in a Beckman Microfuge B. PRP was used within 3 hours of drawing the blood.
Platelet Aggregation Assay: When an aggregating agent such as PAF is added to PRP, platelets aggregate. An aggregometer quantifies this aggregation by measuring light (infra-red) transmission through PRP and comparing to PPP. The aggregation assays were performed using a dual-channel aggregometer (Model 440, Chrono-Log Corp., Hayertown, Pa.). PRP (0.45 ml) in aggregometer curettes was continually stirred (37° C.). Solutions of test compounds or vehicle were added to the PRP, and after incubation for 2 min., 10-15 μl aliquots of PAF solution were added so as to achieve a final concentration of 1-5×10^-8 M. Incubations were continued until the increase in light transmission reached a maximum (usually about 2 min). Values for inhibition were calculated by comparing maximal aggregation obtained in the absence and the presence of the compound. For each experiment, a standard PAF antagonist, such as alprazolam, was used as a positive internal control. […] The test results are shown below in Tables Ia, Ib and Ic.

[2] = CNS activity: antagonism of acetic acid writhing; settings: mouse, in vivo; mice, oral, 15 minutes before acetic acid i.p.
Procedure: E. Antagonism of Acetic Acid Writhing. The acetic acid writhing test is a second test useful for determining CNS activity, and is essentially that described by HENDERSHOT and FORSAITH, J. Pharmac. […] Mice were injected with 0.6% aqueous acetic acid at 10 mg/kg i.p. 15 minutes after oral administration of the test drug. The number of writhes for each animal was counted during a 10 minute period starting 3 minutes after acetic acid treatment. A writhe was defined as a sequence of arching of the back, pelvic rotation and hind limb extension.

[3] = CNS activity: antagonism of electro-convulsive shock (ECS); settings: mouse, in vivo; mice, oral, one hour before ECS; read-out: ECS test ED50
Procedure: F. Antagonism of Electro-Convulsive Shock (ECS). The ECS test is a third test useful for determining CNS activity. […] One hour after oral administration of the test drug or vehicle, mice were administered a 13 mA, 60 cycle a.c. electroconvulsant shock (ECS) for 0.2 seconds via corneal electrodes.

[4] = tested on: histamine-induced lethality; assay: Antihistamine activity: prevention of histamine-induced lethality in guinea pigs; type: in vivo; settings: Cavia porcellus, guinea pig; for responders at 1 mg/kg / responders at 5 mg/kg: 0.5 h, 1 hour before histamine 1.1 mg/kg i.v., read-out: Antihistaminic Activity, % Survival; for responders at 1 mg/kg: oral dose 1 mg/kg PO; for responders at 5 mg/kg: oral dose 5 mg/kg PO
Procedure: C. ANTIHISTAMINE ACTIVITY ASSAY
Prevention of Histamine-Induced Lethality in Guinea Pigs. Some of compounds shown below in Table I also were evaluated for antihistamine activity by their ability to protect female albino guinea pigs (250-350 g) against death induced by the intravenous injection of histamine dihydrochloride at 1.1 mg/kg, which is approximately twice the LD99. Doses of the antagonists were administered orally to separate groups of fasted animals 1 hour prior to the challenge with histamine and protection from death recorded for 30 minutes after histamine. ED50 values were determined for each drug by probit analysis.

[5] = tested on: PAF-induced bronchospasm; assay: PAF-induced bronchospasm in guinea pigs; type: in vivo; settings: guinea pig, 3 mg/kg (iv)
Procedure: PAF is also a known bronchoconstrictive agent in mammals.
B. PAF-INDUCED BRONCHOSPASM IN GUINEA PIGS
Non-sensitized guinea Digs were fasted overnight, and the following morning were anesthetized with 0.9 ml/kg i.p. of dialurethane (0.1 g/ml of diallybarbituric acid, 0.4 g/ml of ethylurea and 0.4 g/ml of urethane). The trachea was cannulated and the animals were ventilated by a Harvard rodent respirator at 55 strokes/min. with a stroke volume of 4 ml. A side arm to the tracheal cannula was connected to a Harvard pressure transducer to obtain a continuous measure of intratracheal pressure, which was recorded on a Harvard Polygraph. The jugular vein was cannulated for the administration of compounds. The animals were challenged i.v. with PAF (0.4 ug/kg in isotonic saline containing 0.25% BSA) and the peak increase in inflation pressure that occurred within 5 min. after challenge was recorded. Test compounds were administered either orally (2 hrs. prior to PAF as a suspension in 0.4% methylcellulose vehicle) or intravenously (10 min. prior to PAF as a solution in dimethylsulfoxide).

IC50 [1]: 1.2 µM
SMILES: CC(=O)N1CCC(=C2c3ccc(Cl)cc3CC(=O)c3cccnc32)CC1 [8-chloro-11-[1-acetyl-4-piperidylidene]-6,11-dihydro-5H-benzo[5,6]cyclohepta[1,2-b]pyridin-5-one]

SMILES: CNC(=O)N1CCC(=C2c3ccc(Cl)cc3CCc3cccnc32)CC1 [R^3 = Cl, R^4 = H, R = NHCH3, Z = O, 8-chloro-11-(1-methylaminocarbonyl-4-piperidylidene)-6,11-dihydro-5H-benzo[5,6]cyclohepta[1,2-b]pyridine]
inhibition at 50 µM ([1]; dose 50 micromoles): 29%

SMILES: CC(=O)N1CCC(=C2c3cc(F)c(F)cc3CCc3ccc[n+]([O-])c32)CC1
inhibition at 2.5 µM ([1]; dose 2.5 micromoles): 53%

IC50 [1]: 5 µM
SMILES: CC(=O)N1CCC(=C2c3ccc(Cl)cc3CC(O)c3cccnc32)CC1 (stereo not drawn) [5-hydroxy-8-chloro-11-(1-acetyl-4-piperidylidene)-6,11-dihydro-5H-benzo[5,6]cyclohepta[1,2-b]pyridine]

SMILES: CC(=O)N1CCC(=C2c3ccc(Cl)cc3CCc3ccc[n+](C)c32)CC1
inhibition at 5 µM [1]: 58%

IC50 [1]: 5 µM
SMILES: COCC(=O)N1CCN(C2c3ccc(Cl)cc3CCc3cccnc32)CC1 (stereo not drawn) [8-chloro-11-(1-methoxyacetyl-4-piperazinyl)-6,11-dihydro-5H-benzo[5,6]cyclohepta[1,2-b]pyridine]

IC50 [1]: 1.2 µM
SMILES: CC(=O)N1CCC(=C2c3ccc(Br)cc3CCc3cccnc32)CC1 [R^3 = Br, R^4 = H, R = CH3, Z = O, 8-bromo-11-[1-acetyl-4-piperidylidene]-6,11-dihydro-5H-benzo[5,6]cyclohepta[1,2-b]pyridine]

IC50 [1]: 1 µM
SMILES: CC(=O)N1CCC(=C2c3ccc(Cl)cc3CC(C)c3cccnc32)CC1 (stereo not drawn) [5-methyl-8-chloro-11-[1-acetyl-4-piperidylidene]-5H-benzo[5,6]cyclohepta[1,2-b]pyridine]

SMILES: COCC(=O)N1CCC(=C2c3ccc(Cl)cc3CCc3cccnc32)CC1 [R = CH2 OCH3, R^3 = Cl, R^4 = H, Z = O, 8-chloro-11-(1-methoxyacetyl-4-piperidylidene)-6,11-dihydro-5H-benzo[5,6]cyclohepta[1,2-b]pyridine]
ED50 [2]: > 320 mg/kg | IC50 [1]: 6 µM | ED50 [3]: > 320 mg/kg | responders at 1 mg/kg [4]: 80% | responders at 5 mg/kg [4]: 80%

SMILES: CC(=O)N1CCC(=C2c3ccc(Cl)cc3CCc3cc(C)cnc32)CC1
inhibition at 0.12 µM ([1]; dose .12 micromoles): 44%

SMILES: CCSC(=O)N1CCC(=C2c3ccc(Cl)cc3CCc3cccnc32)CC1 [R = SCH2 CH3, R^3 = Cl, R^4 = H, Z = O, 8-chloro-11-[1-thioethoxycarbonyl-4-piperidylidene]-6,11-dihydro-5H-benzo[5,6]cyclohepta[1,2-b]pyridine]
ED50 [2]: > 320 mg/kg | inhibition at 10 µM [1]: 0% | ED50 [3]: > 320 mg/kg | responders at 1 mg/kg [4]: 100% | responders at 5 mg/kg [4]: 80%

IC50 [1]: 5 µM
SMILES: O=CN1CCN(C2c3ccc(Cl)cc3CCc3cccnc32)CC1 (stereo not drawn) [R^3 = Cl, X = N, R = H, Z = O, R^4 = H, 8-chloro-11-(1-formyl-4-piperazinyl)-6,11-dihydro-5H-benzo[5,6]cyclohepta[1,2-b]pyridine]

SMILES: CC(=O)N1CCN(C2c3ccc(Cl)cc3CCc3cccnc32)CC1 (stereo not drawn) [R^3 = Cl, X = N, R = CH3, Z = O, R^4 = H, 8-chloro-11-(1-acetyl-4-piperazinyl)-6,11-dihydro-5H-benzo[5,6]cyclohepta[1,2-b]pyridine]
inhibition at 0.5 µM ([1]; dose .5 micromoles): 43%

SMILES: S=C(c1ccccc1)N1CCC(=C2c3ccc(Cl)cc3CCc3cccnc32)CC1 [Z = S, R = Ph, R^3 = Cl, R^4 = H, 8-chloro-11-(1-thiobenzoyl-4-piperidylidene)-6,11-dihydro-5H-benzo[5,6]cyclohepta[1,2-b]pyridine]
ED50 [2]: > 320 mg/kg | ED50 [3]: > 320 mg/kg | responders at 1 mg/kg [4]: 0% | responders at 5 mg/kg [4]: 60%

IC50 [1]: 1.5 µM
SMILES: CC(=O)N1CCC(=C2c3ccccc3CCc3ccc[n+]([O-])c32)CC1

SMILES: CCOC(=O)N1CCC(=C2c3ccc(Cl)cc3CCc3cccnc32)CC1 [R = OC2 H5, R^3 = Cl, R4 = H, Z = O, 8-chloro-6,11-dihydro-11-(1-ethoxycarbonyl-4-piperidylidene)-5H-benzo[5,6]cyclohepta[1,2-b]pyridine, reference compound]
ED50 ([4]; oral, probit analysis, read-out: Antihistaminic Activity, ED50): 0.19 mg/kg

SMILES: CC(=O)N1CCC(=C2c3cc4ccccc4cc3CCc3cccnc32)CC1
inhibition at 5 µM [1]: 35%

SMILES: CC(=O)N1CCC(=C2c3cc(F)ccc3CCc3cccnc32)CC1 [R = CH3, Z = O, R^3 = H, R^4 = F, 9-fluoro-11-(1-acetyl-4-piperidylidene)-6,11-dihydro-5H-benzo[5,6]cyclohepta[1,2-b]pyridine]
IC50 [1]: 0.9 µM | inhibition of PAF-induced bronchospasm [5]: 97% | responders at 5 mg/kg [4]: 0%

IC50 [1]: 5 µM
SMILES: CC(=O)N1CCC(C2c3ccccc3CCc3cccnc32)CC1 (stereo not drawn) [R^3 = H, R^4 = H, R = CH3, Z = O, X = CH, 11-(1-acetyl-4-piperidyl)-6,11-dihydro-5H-benzo[5,6]cyclohepta[1,2-b]pyridine]

SMILES: O=C(c1ccccc1)N1CCC(=C2c3ccc(Cl)cc3CCc3cccnc32)CC1 [Z = O, R = Ph, R^3 = Cl, R^4 = H, 8-chloro-11-(1-benzoyl-4-piperidylidene)-6,11-dihydro-5H-benzo[5,6]cyclohepta[1,2-b]pyridine]
inhibition at 10 µM [1]: 9% | responders at 1 mg/kg [4]: 0% | responders at 5 mg/kg [4]: 100%

IC50 [1]: 0.5 µM
SMILES: CC(=O)N1CCC(=C2c3ccc(Cl)cc3C=Cc3cccnc32)CC1

SMILES: CCCC(=O)N1CCC(=C2c3ccc(Cl)cc3CCc3cccnc32)CC1 [8-chloro-11-(1-n-butyryl-4-piperidylidene)-6,11-dihydro-5H-benzo[5,6]cyclohepta[1,2-b]pyridine]
ED50 [2]: > 320 mg/kg | ED50 [3]: > 320 mg/kg | responders at 1 mg/kg [4]: 40% | responders at 5 mg/kg [4]: 100%

SMILES: COCC(=O)N1CCC(=C2c3ccc(F)cc3CCc3cccnc32)CC1 [R = CH2 OCH3, R^3 = F, R^4 = H, Z = O, 8-fluoro-11-(1-methoxyacetyl-4-piperidylidene)-6,11-dihydro-5H-benzo[5,6]cyclohepta[1,2-b]pyridine]
ED50 [2]: < 320 mg/kg | inhibition at 10 µM [1]: 9% | ED50 [3]: < 320 mg/kg | responders at 1 mg/kg [4]: 100% | responders at 5 mg/kg [4]: 100%

SMILES: CCC(=O)N1CCC(=C2c3ccc(Cl)cc3CCc3cccnc32)CC1 [R = CH2 CH2, R^3 = Cl, R^4 = H, Z = O, 8-chloro-11-(1-propionyl-4-piperidylidene)-6,11-dihydro-5H-benzo[5,6]cyclohepta[1,2-b]pyridine]
ED50 [2]: > 320 mg/kg | inhibition at 3 µM ([1]; dose 3 micromoles): 60% | ED50 [3]: > 320 mg/kg | responders at 1 mg/kg [4]: 40% | responders at 5 mg/kg [4]: 80%

SMILES: C=CC(=O)N1CCC(=C2c3ccc(Cl)cc3CCc3cccnc32)CC1 [R^3 = Cl, R^4 = H, R = CHCH2, Z = O, 8-chloro-11-[1-acryloyl-4-piperidylidene]-6,11-dihydro-5H-benzo[5,6]cyclohepta[1,2-b]pyridine]
inhibition at 25 µM ([1]; dose 25 micromoles): 63%

From patent US5438062A, “Benzo(5,6)cycloheptapyridines, compositions and methods of use” (Schering Corporation, priority 1987, dated 1995)
